In ChEMBL document CHEMBL4507319 (2021):

Tests used:
Conditions in all cases: Compound concentration 1000.0 nM
[1] = target: T1, G protein-coupled receptor kinase 3 (Homo sapiens) (UniProt P35626)
T1 sequence (whole entry): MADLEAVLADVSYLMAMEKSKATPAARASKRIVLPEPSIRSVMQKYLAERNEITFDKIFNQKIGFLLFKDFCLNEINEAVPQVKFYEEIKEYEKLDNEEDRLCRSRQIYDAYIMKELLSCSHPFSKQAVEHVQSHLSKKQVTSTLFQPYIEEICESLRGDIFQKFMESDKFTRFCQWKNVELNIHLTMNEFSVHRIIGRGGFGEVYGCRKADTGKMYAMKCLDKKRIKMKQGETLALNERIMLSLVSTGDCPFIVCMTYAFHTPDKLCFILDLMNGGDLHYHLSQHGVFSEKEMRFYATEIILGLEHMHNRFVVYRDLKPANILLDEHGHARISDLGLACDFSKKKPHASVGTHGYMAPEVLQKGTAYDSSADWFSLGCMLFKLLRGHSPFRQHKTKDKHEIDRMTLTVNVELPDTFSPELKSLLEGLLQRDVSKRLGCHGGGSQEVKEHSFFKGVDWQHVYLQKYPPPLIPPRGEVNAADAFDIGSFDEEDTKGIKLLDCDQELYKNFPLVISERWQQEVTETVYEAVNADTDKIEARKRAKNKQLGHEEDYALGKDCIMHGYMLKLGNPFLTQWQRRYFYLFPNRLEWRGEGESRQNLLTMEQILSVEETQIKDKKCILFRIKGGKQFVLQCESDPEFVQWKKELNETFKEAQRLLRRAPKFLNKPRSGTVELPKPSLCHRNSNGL

[2] = tested on: Tyrosine-protein kinase ABL1 (Homo sapiens), P00519 [Q252H]
[3] = tested on: Receptor-type tyrosine-protein kinase FLT3 (Homo sapiens), P36888 [R834Q]
[4] = target: Serine/threonine-protein kinase MARK2 (Homo sapiens) (UniProt Q7KZI7)
[5] = target: Dual serine/threonine and tyrosine protein kinase (Homo sapiens) (UniProt Q6XUX3)
[6] = tested on: eIF-2-alpha kinase GCN2 (Homo sapiens), Q9P2K8 [S808G]
[7] = target: Serine/threonine-protein kinase DCLK1 (Homo sapiens) (UniProt O15075)
[8] = tested on: Hepatocyte growth factor receptor (Homo sapiens), P08581 [Y1235D]
[9] = target: MAP kinase-interacting serine/threonine-protein kinase 1 (Homo sapiens) (UniProt Q9BUB5)
[10] = target: Serine/threonine-protein kinase SIK3 (Homo sapiens) (UniProt Q9Y2K2)
Chain of Serine/threonine-protein kinase SIK3 (Homo sapiens) (Q9Y2K2 whole entry, looked up): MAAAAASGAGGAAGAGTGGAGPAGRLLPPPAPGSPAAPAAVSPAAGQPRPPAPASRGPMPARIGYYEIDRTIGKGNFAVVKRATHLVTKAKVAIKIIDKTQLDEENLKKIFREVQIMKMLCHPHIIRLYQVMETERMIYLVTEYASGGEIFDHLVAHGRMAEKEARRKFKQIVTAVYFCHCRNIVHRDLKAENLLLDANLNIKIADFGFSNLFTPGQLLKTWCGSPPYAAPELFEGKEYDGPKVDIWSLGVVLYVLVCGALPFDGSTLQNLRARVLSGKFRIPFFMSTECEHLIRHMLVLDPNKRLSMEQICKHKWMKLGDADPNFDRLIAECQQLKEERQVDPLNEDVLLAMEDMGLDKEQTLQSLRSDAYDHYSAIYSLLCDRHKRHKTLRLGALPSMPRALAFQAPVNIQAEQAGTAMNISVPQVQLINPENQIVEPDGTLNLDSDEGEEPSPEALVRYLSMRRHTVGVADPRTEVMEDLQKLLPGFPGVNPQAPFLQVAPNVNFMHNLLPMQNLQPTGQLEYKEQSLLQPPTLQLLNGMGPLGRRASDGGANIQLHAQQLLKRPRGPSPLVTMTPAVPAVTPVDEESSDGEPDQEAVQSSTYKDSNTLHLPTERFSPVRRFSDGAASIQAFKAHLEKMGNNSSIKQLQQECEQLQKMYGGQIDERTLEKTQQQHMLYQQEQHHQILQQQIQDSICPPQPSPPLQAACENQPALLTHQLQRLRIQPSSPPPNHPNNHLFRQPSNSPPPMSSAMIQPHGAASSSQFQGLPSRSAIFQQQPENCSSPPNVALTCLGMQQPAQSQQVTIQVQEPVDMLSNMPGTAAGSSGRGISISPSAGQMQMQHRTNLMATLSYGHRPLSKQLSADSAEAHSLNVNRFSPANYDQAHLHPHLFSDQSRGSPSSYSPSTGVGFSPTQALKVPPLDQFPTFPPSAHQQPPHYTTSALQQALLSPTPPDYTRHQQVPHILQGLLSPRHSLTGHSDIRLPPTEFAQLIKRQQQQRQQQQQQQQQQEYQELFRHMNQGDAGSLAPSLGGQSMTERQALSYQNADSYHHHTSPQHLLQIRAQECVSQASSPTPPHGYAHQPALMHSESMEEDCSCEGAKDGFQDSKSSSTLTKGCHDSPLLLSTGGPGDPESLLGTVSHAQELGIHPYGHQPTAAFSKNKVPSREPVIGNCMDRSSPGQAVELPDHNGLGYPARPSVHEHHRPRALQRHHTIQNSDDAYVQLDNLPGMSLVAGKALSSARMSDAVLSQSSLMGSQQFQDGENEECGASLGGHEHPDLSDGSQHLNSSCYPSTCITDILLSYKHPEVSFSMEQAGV

[11] = target: Cyclin-dependent kinase 19 (Homo sapiens) (UniProt Q9BWU1)
[12] = target: Serine/threonine-protein kinase PLK3 (Homo sapiens) (UniProt Q9H4B4)
Chain of Serine/threonine-protein kinase PLK3 (Homo sapiens) (Q9H4B4 whole entry, looked up): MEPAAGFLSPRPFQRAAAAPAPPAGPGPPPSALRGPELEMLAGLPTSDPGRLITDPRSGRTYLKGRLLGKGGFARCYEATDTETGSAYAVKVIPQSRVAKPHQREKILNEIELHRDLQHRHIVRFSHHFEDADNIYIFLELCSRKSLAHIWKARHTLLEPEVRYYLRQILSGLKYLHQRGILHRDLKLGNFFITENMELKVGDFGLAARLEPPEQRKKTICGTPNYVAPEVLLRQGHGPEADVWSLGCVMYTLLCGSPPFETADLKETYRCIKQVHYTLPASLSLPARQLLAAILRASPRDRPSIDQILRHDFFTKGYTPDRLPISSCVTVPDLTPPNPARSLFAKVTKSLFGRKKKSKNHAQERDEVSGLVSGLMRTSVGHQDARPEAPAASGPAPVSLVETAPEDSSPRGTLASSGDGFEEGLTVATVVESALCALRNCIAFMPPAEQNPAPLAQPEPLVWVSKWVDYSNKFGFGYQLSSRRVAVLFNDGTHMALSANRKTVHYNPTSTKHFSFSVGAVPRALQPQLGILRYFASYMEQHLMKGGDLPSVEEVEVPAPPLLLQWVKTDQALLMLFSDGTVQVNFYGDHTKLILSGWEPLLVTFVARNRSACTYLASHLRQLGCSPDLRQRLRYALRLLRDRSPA

[13] = target: Bone morphogenetic protein receptor type-1A (Homo sapiens) (UniProt P36894)
[14] = target: T2, Activin receptor type-1B (Homo sapiens) (UniProt P36896)
T2 sequence (whole entry): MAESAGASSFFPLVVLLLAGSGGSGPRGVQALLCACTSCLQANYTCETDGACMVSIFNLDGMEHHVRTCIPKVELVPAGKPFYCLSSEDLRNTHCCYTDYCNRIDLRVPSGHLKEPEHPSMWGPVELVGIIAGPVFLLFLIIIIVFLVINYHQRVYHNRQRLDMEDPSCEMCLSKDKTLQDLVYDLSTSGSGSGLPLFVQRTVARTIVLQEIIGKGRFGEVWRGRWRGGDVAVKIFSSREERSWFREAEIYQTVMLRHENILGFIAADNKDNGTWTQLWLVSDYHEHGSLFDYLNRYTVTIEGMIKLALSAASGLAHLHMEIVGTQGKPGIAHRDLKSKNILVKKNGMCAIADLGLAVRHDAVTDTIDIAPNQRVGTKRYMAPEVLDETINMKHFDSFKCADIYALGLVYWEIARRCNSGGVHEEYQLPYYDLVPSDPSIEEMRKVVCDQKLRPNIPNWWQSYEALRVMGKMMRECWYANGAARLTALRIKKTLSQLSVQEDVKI

[15] = target: Tyrosine-protein kinase ABL1 (Homo sapiens) (UniProt P00519)
[16] = target: Aurora kinase C (Homo sapiens) (UniProt Q9UQB9)
[17] = target: Non-receptor tyrosine-protein kinase TYK2 (Homo sapiens) (UniProt P29597)
[18] = target: Casein kinase I isoform gamma-2 (Homo sapiens) (UniProt P78368)
Chain of Casein kinase I isoform gamma-2 (Homo sapiens) (P78368 whole entry, looked up, canonical isoform): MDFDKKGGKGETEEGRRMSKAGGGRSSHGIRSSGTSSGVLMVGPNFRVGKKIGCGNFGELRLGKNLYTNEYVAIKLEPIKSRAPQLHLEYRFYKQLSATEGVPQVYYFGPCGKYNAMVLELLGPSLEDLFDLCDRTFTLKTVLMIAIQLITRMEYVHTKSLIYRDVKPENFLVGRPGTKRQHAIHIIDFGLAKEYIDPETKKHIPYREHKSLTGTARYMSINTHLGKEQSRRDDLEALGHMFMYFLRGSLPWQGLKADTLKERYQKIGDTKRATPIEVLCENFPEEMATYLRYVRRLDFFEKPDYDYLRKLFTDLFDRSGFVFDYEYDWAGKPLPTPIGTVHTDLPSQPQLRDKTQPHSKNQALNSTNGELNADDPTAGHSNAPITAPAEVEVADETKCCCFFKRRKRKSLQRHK

[19] = target: Cyclin-dependent kinase-like 1 (Homo sapiens) (UniProt Q00532)
Chain of Cyclin-dependent kinase-like 1 (Homo sapiens) (Q00532 whole entry): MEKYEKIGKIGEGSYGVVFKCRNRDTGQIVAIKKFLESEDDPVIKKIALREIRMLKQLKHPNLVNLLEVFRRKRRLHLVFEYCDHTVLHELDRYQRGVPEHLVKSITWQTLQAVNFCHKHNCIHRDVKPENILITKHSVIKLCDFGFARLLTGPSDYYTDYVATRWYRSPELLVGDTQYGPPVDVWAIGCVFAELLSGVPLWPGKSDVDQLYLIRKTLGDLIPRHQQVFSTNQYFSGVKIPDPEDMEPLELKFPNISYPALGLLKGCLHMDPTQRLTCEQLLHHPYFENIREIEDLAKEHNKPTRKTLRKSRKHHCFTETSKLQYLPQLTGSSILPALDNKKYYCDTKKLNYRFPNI

[20] = target: 1-phosphatidylinositol 3-phosphate 5-kinase (Homo sapiens) (UniProt Q9Y2I7)
[21] = target: MAP/microtubule affinity-regulating kinase 3 (Homo sapiens) (UniProt P27448)
Chain of MAP/microtubule affinity-regulating kinase 3 (Homo sapiens) (P27448 whole entry, looked up): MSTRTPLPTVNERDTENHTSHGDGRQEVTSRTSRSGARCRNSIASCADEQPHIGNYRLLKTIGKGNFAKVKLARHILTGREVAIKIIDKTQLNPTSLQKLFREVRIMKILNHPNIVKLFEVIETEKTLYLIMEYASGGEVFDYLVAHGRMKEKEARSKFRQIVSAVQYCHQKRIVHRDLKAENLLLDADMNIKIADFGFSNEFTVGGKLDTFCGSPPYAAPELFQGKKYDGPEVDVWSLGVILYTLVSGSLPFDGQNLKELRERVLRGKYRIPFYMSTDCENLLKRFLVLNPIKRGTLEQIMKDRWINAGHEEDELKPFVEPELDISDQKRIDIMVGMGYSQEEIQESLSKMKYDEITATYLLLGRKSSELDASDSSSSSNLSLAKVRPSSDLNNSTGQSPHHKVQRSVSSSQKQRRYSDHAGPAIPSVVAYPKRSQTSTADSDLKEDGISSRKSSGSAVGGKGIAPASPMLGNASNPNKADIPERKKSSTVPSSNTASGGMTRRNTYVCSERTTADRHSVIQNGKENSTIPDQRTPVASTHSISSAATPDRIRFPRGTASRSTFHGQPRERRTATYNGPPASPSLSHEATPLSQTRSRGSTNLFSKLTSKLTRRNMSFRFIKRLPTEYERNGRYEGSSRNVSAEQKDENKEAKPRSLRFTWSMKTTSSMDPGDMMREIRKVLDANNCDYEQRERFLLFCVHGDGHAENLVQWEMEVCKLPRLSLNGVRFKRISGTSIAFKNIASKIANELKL

[22] = target: Cyclin-dependent kinase-like 3 (Homo sapiens) (UniProt Q8IVW4)
[23] = target: SRSF protein kinase 3 (Homo sapiens) (UniProt Q9UPE1)
[24] = target: Mitogen-activated protein kinase kinase kinase 19 (Homo sapiens) (UniProt Q56UN5)
Chain of Mitogen-activated protein kinase kinase kinase 19 (Homo sapiens) (Q56UN5 whole entry): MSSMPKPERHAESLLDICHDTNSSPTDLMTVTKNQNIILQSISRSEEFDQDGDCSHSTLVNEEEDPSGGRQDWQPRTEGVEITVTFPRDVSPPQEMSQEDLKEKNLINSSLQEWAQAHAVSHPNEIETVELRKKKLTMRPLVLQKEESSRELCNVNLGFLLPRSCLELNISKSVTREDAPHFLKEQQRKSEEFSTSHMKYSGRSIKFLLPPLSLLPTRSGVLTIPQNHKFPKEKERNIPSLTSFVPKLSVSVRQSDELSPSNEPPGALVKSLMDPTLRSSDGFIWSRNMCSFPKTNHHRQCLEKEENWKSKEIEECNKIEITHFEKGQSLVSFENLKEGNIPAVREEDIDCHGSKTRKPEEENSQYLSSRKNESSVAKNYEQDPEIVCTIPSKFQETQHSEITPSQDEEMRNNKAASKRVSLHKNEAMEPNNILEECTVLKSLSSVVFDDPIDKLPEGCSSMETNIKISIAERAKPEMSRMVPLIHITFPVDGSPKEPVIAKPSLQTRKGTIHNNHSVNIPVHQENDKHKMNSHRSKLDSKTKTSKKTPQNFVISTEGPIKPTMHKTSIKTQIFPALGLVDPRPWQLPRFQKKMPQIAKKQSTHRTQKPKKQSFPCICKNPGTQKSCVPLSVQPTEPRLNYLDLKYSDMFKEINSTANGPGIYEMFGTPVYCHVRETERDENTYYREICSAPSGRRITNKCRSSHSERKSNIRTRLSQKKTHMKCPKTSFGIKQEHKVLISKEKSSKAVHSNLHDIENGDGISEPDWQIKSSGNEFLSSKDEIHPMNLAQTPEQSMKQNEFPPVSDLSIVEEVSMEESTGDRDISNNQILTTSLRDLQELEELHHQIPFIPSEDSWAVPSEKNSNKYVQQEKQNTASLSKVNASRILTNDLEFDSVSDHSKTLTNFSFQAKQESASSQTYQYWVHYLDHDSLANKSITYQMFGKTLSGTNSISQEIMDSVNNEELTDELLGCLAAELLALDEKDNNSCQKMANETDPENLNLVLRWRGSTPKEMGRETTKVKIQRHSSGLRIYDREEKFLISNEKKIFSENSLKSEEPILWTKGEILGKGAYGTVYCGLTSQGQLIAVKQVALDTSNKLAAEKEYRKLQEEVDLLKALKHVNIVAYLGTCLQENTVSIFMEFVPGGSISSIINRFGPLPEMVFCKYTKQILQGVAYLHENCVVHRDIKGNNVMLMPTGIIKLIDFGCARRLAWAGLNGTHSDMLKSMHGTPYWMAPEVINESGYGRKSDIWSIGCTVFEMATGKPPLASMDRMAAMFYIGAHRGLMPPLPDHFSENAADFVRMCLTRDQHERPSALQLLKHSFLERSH

SMILES	residual activity [1] [%]	residual activity [2] [%]	residual activity [3] [%]	residual activity [4] [%]	residual activity [5] [%]	residual activity [6] [%]	residual activity [7] [%]	residual activity [8] [%]	residual activity [9] [%]	residual activity [10] [%]	residual activity [11] [%]	residual activity [12] [%]	residual activity [13] [%]	residual activity [14] [%]	residual activity [15] [%]	residual activity [16] [%]	residual activity [17] [%]	residual activity [18] [%]	residual activity [19] [%]	residual activity [20] [%]	other results
CC1=C(C#N)C(c2ccc3c(c2)c(NC(=O)c2ccccc2C)nn3C)C(C#N)=C(C)N1 [BAY-974]	93	100	90	99	72	61	79	74	70	81	74	80	100	80	86	97	88	95	72	87	residual activity [21]: 92%; residual activity [22]: 79%; residual activity [23]: 100%; residual activity [24]: 82%
CCc1ccccc1C(=O)Nc1n[nH]c2c(C)c(F)c(C3C(C#N)=C(C)N(C)C(C)=C3C#N)cc12 [BAY-3827]	100	82	89	40	95	43	87	16	100	74	100	100	87	100	78	29	100	97	87	100	residual activity [21]: 30%; residual activity [22]: 87%; residual activity [23]: 100%; residual activity [24]: 74%
